Source: patent US20020004058A1, “Immunomodulating and antiinflammatory agent” (priority 1993, published 2002)

Experiments:
[1] = system: anti-TNP antibody production; assay: Production of a TNP-specific antibody (anti-TNP IgM and IgG, ELISA) in mice sensitized with TNP-SRBC; assay type: in vivo, male BALB/c mice; details: hypodermic injection four days from sensitization
Description: (§1) Trinitrobenzenesulfonic acid (TNBS) was dissolved in a physiological saline solution buffered with phosphoric acid to prepare a solution (40 mg/7.0 ml; pH 7.2) and then 1 ml of sheep red cell pellets was dropped thereinto with stirring. The mixture was allowed to stand at room temperature with stirring for several times under a light-shielding state and washed with a physiological saline solution three times. Then it was centrifuged at 3,000 rpm for five minutes and made into a solution of 5×10^9 cells/ml using a physiological saline solution.
TNP-SRBC (10^9 cells) was intraperitoneally administered to male BALB/c mice of six to eight weeks age and the anti-TNP antibody in serum was measured by an enzymatic immunoassay (ELISA) using a dinitrophenyl-bovine serum albumin (DNP-BSA).
(§2) The above-mentioned test system was used for checking the action of: (a) the histamine-added mouse gamma-globulin (150 mg/kg/day) (the product of the present invention), (b) cyclosporin A (100 mg/kg/day), (c) cyclophosphamide (100 mg/kg/day), (d) prednisolone ([…]) and (e) levamizole (5 mg/kg/day) towards the anti-TNP antibody production and to the TNP-specific DTH reaction. The drugs were administered by hypodermic injection four days from the sensitization with TNP-SRBC.

[2] = system: TNP-specific DTH reaction; assay: TNP-specific DTH reaction (paw swelling) in mice sensitized with TNP-SRBC; assay type: in vivo, male BALB/c mice; details: for Swelling in Paws After 24 Hrs.: difference right/left paw 24 hours after TNB induction on day 14; for Swelling in Paws After 24 Hrs. / Swelling in Paws After 48 Hrs.: drugs by hypodermic injection four days from sensitization; for Swelling in Paws After 48 Hrs.: difference right/left paw 48 hours after TNB induction on day 14; for action to the delayed type hypersensitivity (DTH), in words: hypodermic injection four days from sensitization
Description: as §1
The mice were sensitized with TNP-SRBC as described in paragraph (2) above. On the 14th day, 0.025 ml of TNB (4.7 mg/ml) was injected into the right hind paw to induce a TNP-specific DTH reaction. After 24 hours and 48 hours from the induction, the thickness of both paws was measured using a dial gauge. The difference in the thickness between the right and left paws was expressed as the intensity of the DTH reaction. […] This measuring system for the DTH reaction can be subjected to further tests using the same mice as in the case of the antibody production system of paragraph (2) above.
as §2

[3] = system: eosinophils exudated to peritoneum; assay: Hypereosinophilic model induced by ragweed pollen antigen; assay type: in vivo, female BALB/c mice
Description: A ragweed pollen extract (which was diluted to an extent of 1,000 times using a physiological saline solution) was hypodermically injected into female BALB/c mice of six to eight weeks age for sensitization at the dose of 0.1 ml on the initiation day and on the first day and 0.2 ml on the sixth, eighth and fourteenth days. On the twentieth day, 0.2 ml of a 1,000 times diluted ragweed antigen was intraperitoneally injected into the mice to induce the reaction. On the 24th hour after the induction, the peritoneal exudate cells were recovered and subjected to a Giemsa staining and the total cell numbers, number of eosinophils, number of neutrophils and number of mononuclear cells were counted. As a result, the number of the eosinophils peaked 24 hours after the induction. […] The above-mentioned hypereosinophilic models were used for checking the action towards the hypereosinophilicity by a hypodermic injection of the product of the present invention. Thus, histamine-added mouse gamma-globulin, at a dose of 3 mg/mouse/day twice a week for three weeks was administered until the induced day. Further tests were conducted by administering the corresponding amount of each of histamine (dihydrochloride) and mouse gamma-globulin which are the constituting components of the histamine-added mouse gamma-globulin.

[4] = system: eosinophils exudated to peritoneum; assay: Hypereosinophilic model induced by platelet activating factor (PAF); assay type: in vivo, female BALB/c mice
Description: A PAF (5 micrograms/200 microliters) was intraperitoneally injected into female BALB/c mice of six to eight weeks age to induce the reaction. After 24 hours from the induction, the peritoneal exudate cells were recovered and the number of the eosinophils were counted.

Structure (SMILES) | action upon anti-TNP IgG antibody production (FIG. 2), in words [1] | action upon anti-TNP IgM antibody production (FIG. 1), in words [1] | Swelling in Paws After 24 Hrs. [2] | Swelling in Paws After 48 Hrs. [2] | action to the delayed type hypersensitivity (DTH), in words [2] | Number of Eosinophils Exudated to Peritoneum ([3]; ragweed antigen induced, 24 h after induction, product 3 mg/mouse/day s.c. twice a week for three weeks, components in corresponding amount, cyclosporin A 100 mg/kg/day three days) | suppression of eosinophil exudation into peritoneum, ragweed pollen antigen model, in words ([3]; twice a week for three weeks until the induced day) | Number of Exudated Eosinophils to Peritoneum ([4]; PAF 5 micrograms i.p., 24 hours after induction) | suppressive action upon hypereosinophilicity induced by PAF, in words ([4]; same manner of administration as ragweed model)
C[C@]12C=CC(=O)C=C1CC[C@@H]1[C@@H]2[C@@H](O)C[C@@]2(C)[C@H]1CC[C@]2(O)C(=O)CO [Prednisolone, prednisolone] | did not significantly affect | did not significantly affect | 30.0 ± 5.6 ×10^−2 mm | 8.3 ± 3.3 ×10^−2 mm | weak suppressive action | – | – | – | –
c1ccc([C@H]2CN3CCSC3=N2)cc1 [Lavamizole, levamizole] | did not significantly affect | did not significantly affect | 40.0 ± 6.5 ×10^−2 mm | 20.0 ± 5.0 ×10^−2 mm | no significant effect | – | – | – | –
O=P1(N(CCCl)CCCl)NCCCO1 (stereo not shown) [Cyclophosphamide, cyclophosphamide] | significantly suppressed | significantly suppressed | 13.3 ± 2.1 ×10^−2 mm | 15.8 ± 2.4 ×10^−2 mm | clear suppressive actions | – | – | – | –
Cl.Cl.NCCc1c[nH]cn1 [Histamine, histamine (dihydrochloride)] | – | – | – | – | – | 3.4 ± 0.6 ×10^5 cells | not observed | 2.2 ± 0.8 ×10^5 cells | not observed
